Results reported in patent US9856511B2, “Protease deubiquitinating inhibitor screening” (priority 2011, dated 2018).

Test system: Lewis Lung Carcinoma (LLC)
Assay: Lewis Lung Carcinoma (LLC) syngenic tumors in C57BL/6J mice
Assay type: in vivo
Conditions: 5 mg/kg i.p., day on/2 day off schedule; p=<0.01
Experimental: In order to investigate the effect of b-AP15 on tumor growth in vivo, the compound was administered to mice bearing either a human tumor or mouse xenografts. FaDu head and neck carcinoma were chosen as a SCID mouse xenograft both as a model for a p53mut tumor and since this model is suitable for studies using circulating cell death biomarkers (30). Significant inhibition of FaDu tumor growth was observed following daily treatment with b-AP15 (treated/control tumor volume, T/C=0.4, p=<0.001). Similarly b-AP15 (day on/2 day off schedule) inhibited tumor growth in C57BL/6J mice bearing lung carcinomas (T/C=0.16, p=<0.01). […] To examine whether b-AP15 promotes tumor cell death in vivo, plasma levels of cytokeratin-18 (CK18) were analyzed. […] To investigate the ability of b-AP15 to inhibit proteasome deubiquitination in vivo, accumulation of poly-ubiquitin conjugates was analyzed by means of antibodies specific for K48 linked polyubiquitin chains. Histological analysis of treated tumors confirmed the accumulation of poly-ubiquitin conjugates. […]
Animal experiments were conducted in full accordance with Swedish governmental statutory regulations on animal welfare under permission from local ethical committees. […] All mice were monitored and weighed daily. […] After injection, tumor growth was measured daily with calipers and the tumor volume calculated by the formula L=W^2=0.44. […]

**Q.** `C=CC(=O)N1C/C(=C\c2ccc([N+](=O)[O-])cc2)C(=O)/C(=C/c2ccc([N+](=O)[O-])cc2)C1` [b-AP15] was tested. Which “treated/control tumor volume, T/C” value did it give?
**A.** 0.16
